Results taken from patent publication US11491122B2, “Use of a combination of Adelmidrol and hyaluronic acid in the treatment of pain caused by osteoarthritis and epithelial dysfunctions” (Epitech Group S.p.A., priority 2014, dated 2022).

Experiments:
[1] = cited from earlier work
TNF-α = test: Osteoarthritis induced by sodium monoiodoacetate: TNF-α in the synovial fluid (ELISA); assay type: in vivo, rat; details: intra-articular Adelmidrol, MIA osteoarthritic rats
Description: (§1) The experiments were conducted using adult male rats of the Wistar strain (weight 200-250 grams) supplied by Harlan Italy, put in enclosures for a week in standard dietary and environmental conditions (temperature 21±1° C., humidity 60±10%, light 12 hours a day and water and food ad libitum) before being used in the experiments. […] MIA acts locally by inhibiting glycolysis, destroying the metabolism of chondrocytes and producing cartilage degeneration. At the time of the induction of osteoarthritis, MIA was dissolved in sterile saline. Before carrying out the intra-articular administration, the rats were anesthetized with pentobarbital sodium dissolved in saline at the dose of 60 mg/kg, in an administration volume of 0.2 ml/hg intraperitoneally (i.p.). The animals that received the MIA injection in their right knee represent the osteoarthritic (OA) group. […]
The determination of TNF-α levels in the synovial fluid was made using an ELISA (Enzyme Linked Immuno-Sorbent-Assay) immunoenzymatic assay using a commercial kit from Biosource International Inc. The method uses a procedure in which the antigen is trapped between two layers of antibodies and for this reason it is called an ELISA sandwich. […] Following the enzymatic reaction, a product is generated whose staining intensity is measured spectrophotometrically and is directly proportional to the concentration of TNF-α in the samples. […]

NAAA = molecular target: T1, NAAA (Rattus norvegicus, UniProt Q5KTC7); test: Maximum reduction of the activity of the PEA-degrading enzyme NAAA, rat brain membrane homogenates; assay type: biochemical
T1 construct: was also measured using homogenates rat brain membranes; from tissue; host or cells: rat brain membrane homogenates
T1 sequence (Q5KTC7 131-362 limits assumed): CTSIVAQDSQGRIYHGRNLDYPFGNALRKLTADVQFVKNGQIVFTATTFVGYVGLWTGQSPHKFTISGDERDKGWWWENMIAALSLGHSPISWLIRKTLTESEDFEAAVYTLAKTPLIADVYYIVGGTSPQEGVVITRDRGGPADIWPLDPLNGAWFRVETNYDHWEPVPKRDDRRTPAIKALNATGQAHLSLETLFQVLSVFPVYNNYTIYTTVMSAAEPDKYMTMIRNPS
T1 sequence (Q5KTC7 34-130 limits assumed): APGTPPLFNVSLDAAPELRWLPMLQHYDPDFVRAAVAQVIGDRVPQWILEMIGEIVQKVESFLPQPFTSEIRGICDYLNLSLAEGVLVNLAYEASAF
Description: (§2) The maximum reduction of the activity of the palmitoylethanolamide-degrading enzymes (NAAA and FAAH) was also measured using homogenates rat brain membranes [Ueda N et al Chem Phys Lipids. 2000 November; 108(1-2):107-21; Tsuboi K. Et al J Biol Chem. 2005 March 25; 280(12):11082-92].

FAAH = molecular target: T2, FAAH (Rattus norvegicus, UniProt P97612); test: Maximum reduction of the activity of the PEA-degrading enzyme FAAH, rat brain membrane homogenates; assay type: biochemical
T2 construct: was also measured using homogenates rat brain membranes; from tissue; host or cells: rat brain membrane homogenates
T2 sequence (P97612 1-579): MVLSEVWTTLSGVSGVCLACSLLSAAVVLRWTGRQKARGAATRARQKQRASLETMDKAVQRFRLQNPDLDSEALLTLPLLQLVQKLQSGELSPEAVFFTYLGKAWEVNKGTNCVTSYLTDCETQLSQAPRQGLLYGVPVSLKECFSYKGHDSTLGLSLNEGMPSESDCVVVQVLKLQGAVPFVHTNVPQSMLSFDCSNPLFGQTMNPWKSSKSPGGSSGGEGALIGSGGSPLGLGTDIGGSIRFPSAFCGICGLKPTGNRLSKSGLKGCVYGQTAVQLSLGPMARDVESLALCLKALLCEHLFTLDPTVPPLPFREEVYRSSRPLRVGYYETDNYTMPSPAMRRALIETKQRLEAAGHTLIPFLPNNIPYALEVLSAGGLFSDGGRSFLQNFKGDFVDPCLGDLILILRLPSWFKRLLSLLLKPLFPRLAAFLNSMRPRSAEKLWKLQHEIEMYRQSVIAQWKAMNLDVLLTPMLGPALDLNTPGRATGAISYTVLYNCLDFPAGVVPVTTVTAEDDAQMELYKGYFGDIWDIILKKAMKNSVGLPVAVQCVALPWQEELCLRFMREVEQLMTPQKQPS
Description: as §2

[2] = test system: patients with Bladder Pain Syndrome (BPS); test: Intravesical instillation in patients with Painful Bladder Syndrome (BPS); assay type: in vivo, human; details: 7 female BPS patients
Description: A sterile solution containing 2% Adelmidrol and 0.1% hyaluronic acid sodium salt was instilled into the bladder of no. 7 female patients through catheter after the complete emptying of the bladder itself. […] Most of the times, the patients had comorbidity with other pelvic diseases (vulvar vestibulitis 4/7; IBS (irritable bowel syndrome) 2/7; Fibromyalgia Syndrome 1/7, Recurrent Urinary Tract Infections (RUTI) 3/7).
Treatments were carried out as attack therapy (one intravesical instillation per week for 8 weeks), followed by maintenance therapy (one instillation per month for 6 months).
Using a dedicated diary, the frequency of urination (measured as the number of urinations in 12 hours), both during the day and at night, and the discomfort with bladder full were controlled, analyzing the pain, the feeling of weight and the burning in the pelvic area (all three parameters were measured by means of numerical scale VAS, before treatment, at the end of the attack therapy and at the end of the maintenance therapy).

[3] = experimental animals, oral administration; cited from earlier work
[4] = test system: knee osteoarthritis induced by monosodium iodoacetate (MIA); test: Osteoarthritis induced by sodium monoiodoacetate: knee edema by digital caliper; assay type: in vivo, rat; details: intra-articular Adelmidrol 1.5, 15 and 150 μg/injection, days 1, 8, 15; dose-dependent, evident at all analyzed times
Description: as §1, with “(i.p.).” for “(i.p.). The animals that received the MIA injection in their right knee represent the osteoarthritic (OA) group.”
In order to evaluate the formation of the edema in the right knee of the animals after MIA injection, a digital manual slide caliper (measuring capacity 0-150 mm; resolution: 0.01 mm; ROHS Compliant Electronic Digital Caliper—2 Biological Instruments SNC, Italy) was used. […] The edema was calculated as the difference between the […] of the right knee and left knee. […]
The various parameters are measured at different times in relation to the parameter itself (e.g. inflammatory parameters are evaluated only in the first week since the MIA, pain is always evaluated before and 60 min. after the administration of Adelmidrol).

HaCaT cells = test: Endogenous levels of AEA, 2-AG, PEA and OEA in HaCaT cells stimulated with Adelmidrol (LC-APCI-MS); assay type: cell-based, human; details: Adelmidrol 10 μM, 24 hours
Description: Cultured human keratinocytes, HaCaT, were grown in DMEM (Dulbecco's Modified Eagle Medium) supplemented with glutamine (2 mM), penicillin (400 U/ml), streptomycin ([…]), 10% FBS (Fetal Bovine Serum), in the presence of 5% CO2 and at 37° C. Thereafter, cells plated in 6-well multi-wells (9×10^5/well), once 70% confluence had been reached, were stimulated with Adelmidrol, 10 μM, or carrier (Ctrl, 0.05% methanol) for 24 hours in the presence of 5% CO2 at 37° C. After 24 hours, the cells and the surnatants were homogenized in 5 vol. of a chloroform/methanol TRIS-HCl 50 mM pH 7.4 (2:1:1) solution containing 10 pmol of [^2H]8anandamide (AEA) and 50 pmol of [^2H]52-arachidonoylglycerol (2-AG), [^2H]4palmitoylethanolamide (PEA) and [^2H]2oleoylethanolamide (OEA) (Bisogno et al., 1997). The organic-lipidic phase obtained from the four extractions with chloroform was subjected to purification by silica column chromatography, eluted by increasing concentrations of methanol in chloroform. The chloroform/methanol 90:10 fraction containing AEA, 2-AG, PEA and OEA was analyzed by liquid chromatography coupled to mass spectrometry using chemical ionization at atmospheric pressure (LC-APCI-MS) (Marsicano et al., 2002). The equipment used includes a Shimadzu HPLC (LC-10ADVP) coupled with a Shimadzu spectrometer (LCMS-2010) via a Shimadzu APCI interface. The ionization source temperature is 400° C. and a Phenomenex reverse phase HPLC column (C-18, 5 microns, 150×4.6 mm) is used. The mobile phase, consisting of a mixture of methanol/water/acetic acid (85/15/0.1%), passes through the column at a rate of 1 ml/min. The mass spectrum determination is carried out according to the selected ion monitoring (SIM) [Di Marzo et al. Nature 2001; 410:822-825]. Selected ions correspond to mass/charge values (m/z) of 356 and 348 (molecular ions of deuterated and non-deuterated AEA), 384.35 and 379.35 (molecular ions of deuterated and non-deuterated 2-AG), 304 and 300 (molecular ions of deuterated and non-deuterated PEA), 328 and 326 (molecular ions of deuterated and non-deuterated OEA). The quantity expressed as pmol/mg of lipid extract were compared using ANOVA followed by the Student-Newman-Keuls test.

O=C(CCCCCCCC(=O)NCCO)NCCO [Adelmidrol, N,N′-Bis(2-hydroxyethyl)nonandiamide]
solubility in lipids [1]: good solubility in lipids
solubility in water [1]: high solubility in water
levels of TNF-α in the synovial fluid (TNF-α): reduction
inhibition of the activity of NAAA (in words) (NAAA): does not inhibit
inhibition at 50 µM (NAAA; Treatment with Adelmidrol 50 μM, Control 11.43 ± 1.72%, read-out: Maximum inhibition of the enzymatic activity (expressed as IC50), Enzyme NAAA): 11.3 ± 2.26%
inhibition of the activity of FAAH (in words) (FAAH): does not inhibit
inhibition at 50 µM (FAAH; Treatment with Adelmidrol 50 μM, Control 21.22 ± 3.18%, read-out: Maximum inhibition of the enzymatic activity (expressed as IC50), Enzyme FAAH): 20.1 ± 4.12%
all the parameters evaluated (urination frequency, pain, weight, burning) after treatment [2]: marked improvement
LD50 [3]: 2-3 g/kg body weight
anti-inflammatory effect (knee edema) [4]: strong anti-inflammatory effect
levels of 2-AG in HaCaT cells (HaCaT cells; vs Ctrl): No significant variation
levels of AEA in HaCaT cells (HaCaT cells; vs Ctrl): No significant variation
levels of OEA in HaCaT cells (HaCaT cells; vs Ctrl): No significant variation
levels of PEA in HaCaT cells (HaCaT cells; basal values 31.6±5.6, n=6, P<0.0001): 66.4±9.6 pmol/mg of lipid extract
